In patent US20110105500A1, “PYRAZINE SUBSTITUTED PURINES” (S*BIO Pte Ltd., priority 2008, published 2011):

Tests used:
[1] = system: human breast cancer cell lines; conditions: cited from earlier work
[2] = molecular target: T1, Recombinant PI3K p110α/p85 (Homo sapiens, UniProt P42336); assay: PI3K Assay ([γ33P]ATP, PtdIns/PtdSer coated plates); type: biochemical; conditions: p110α/p85, 2 μM ATP, 1 hour at RT; read-out: IC50 (PI3Kα)
T1 construct: made in house
Protocol: Recombinant PI3K p110α/p85 was prepared in-house. Phosphatidylinositol (PtdIns), phosphotidylserine (PtdSer) and all other unspecified chemicals were purchased from Sigma-Aldrich. [γ33P]ATP and Optiphase scintillant were obtained from Perkin Elmer.
Assays were performed in a final assay volume of 25 μL in 384-well Maxisorp plates (Nunc). […] Maxisorp plates were coated with 20 μL/well of a 1:1 mixture of PtdIns and PtdSer [0.1 mg/mL each dissolved in chloroform:ethanol (3:7)] and left overnight in a fume hood at room temperature to dry.
The enzyme reaction was created by pipetting 5 μL/well of compound (in 2.5% DMSO), 10 μL/well of enzyme (0.5 μg/mL p110α+1 μg/mL p85), and 10 μL/well of 5 μM ATP with 5 μCi/mL [γ^33P]ATP in assay buffer (final concentrations: 0.2 μg/mL p110α, 2 μM ATP, 0.05 μCi/well [γ^33P]ATP in 1× assay buffer: 100 mM Tris-HCl pH 7.0, 200 mM NaCl, 8 mM MgCl2). The reaction was incubated for 1 hour at RT and terminated with 30 μL/well of 50 mM EDTA solution. The plate was then washed twice with TBS, dried, and added with 30 μL/well of scintillant before it was counted in a MicroBeta Trilux.

Full-length mTOR kinase = molecular target: T2, Full-length mTOR kinase (Homo sapiens, UniProt P42345); assay: mTOR Assay (phosphorylation of 4eBP1, [γ33P]-ATP filter plate); type: biochemical; conditions: 10 μM ATP, 1 hour at room temperature
T2 construct: Full-length mTOR kinase and His-tagged 4eBP1 were produced in-house; made in house
Protocol: Full-length mTOR kinase and His-tagged 4eBP1 were produced in-house. [γ^33P]-ATP was purchased from Amersham (GE Healthcare). All chemicals, unless otherwise stated, were from Sigma-Aldrich.
Phosphorylation assays were initially performed in a final volume of 20 μL in 384-well polypropylene plate (Greiner). Compounds were typically tested over the range from 100 μM to 0.006 μM, in 8 step dilutions, in duplicate. 10 μL/well of 2× Enzyme-Substrate solution (1.5 μg/mL mTOR, 40 μg/mL 4eBP1 in 1× assay buffer: 10 mM Hepes pH 7.5, 50 mM NaCl and 10 mM MnCl2) were first added to the sample plate containing 1 μL/well of test compound in neat DMSO. The reaction was initiated by adding 10 μL/well of 20 μM ATP solution (final assay concentration 10 μM ATP and 0.4 μCi/well of [γ^33P]-ATP). After 1 hour incubation at room temperature, the reaction was terminated with 40 μL/well of 20 mM EDTA/1 mM ATP solution.
50 μL/well of the stopped reaction mix was then transferred to 384-well MultiScreenHTS-PH filter plate (Millipore) pre-added with 50 μL/well of 1% phosphoric acid. The plate was washed 4 times with 120 μL/well of 0.5% phosphoric acid via vacuum filtration. Finally, 10 μL/well of Optiphase™ SuperMix liquid scintillation cocktail (Perkin Elmer) was added. After minimum 1 hour of incubation, counting was performed in a Wallac MicroBeta TriLux scintillation counter using coincidence counting mode with crosstalk correction. IC50 is defined as the concentration of compound required for 50% inhibition of kinase enzyme activity.

T1 sequence (P42336 whole entry): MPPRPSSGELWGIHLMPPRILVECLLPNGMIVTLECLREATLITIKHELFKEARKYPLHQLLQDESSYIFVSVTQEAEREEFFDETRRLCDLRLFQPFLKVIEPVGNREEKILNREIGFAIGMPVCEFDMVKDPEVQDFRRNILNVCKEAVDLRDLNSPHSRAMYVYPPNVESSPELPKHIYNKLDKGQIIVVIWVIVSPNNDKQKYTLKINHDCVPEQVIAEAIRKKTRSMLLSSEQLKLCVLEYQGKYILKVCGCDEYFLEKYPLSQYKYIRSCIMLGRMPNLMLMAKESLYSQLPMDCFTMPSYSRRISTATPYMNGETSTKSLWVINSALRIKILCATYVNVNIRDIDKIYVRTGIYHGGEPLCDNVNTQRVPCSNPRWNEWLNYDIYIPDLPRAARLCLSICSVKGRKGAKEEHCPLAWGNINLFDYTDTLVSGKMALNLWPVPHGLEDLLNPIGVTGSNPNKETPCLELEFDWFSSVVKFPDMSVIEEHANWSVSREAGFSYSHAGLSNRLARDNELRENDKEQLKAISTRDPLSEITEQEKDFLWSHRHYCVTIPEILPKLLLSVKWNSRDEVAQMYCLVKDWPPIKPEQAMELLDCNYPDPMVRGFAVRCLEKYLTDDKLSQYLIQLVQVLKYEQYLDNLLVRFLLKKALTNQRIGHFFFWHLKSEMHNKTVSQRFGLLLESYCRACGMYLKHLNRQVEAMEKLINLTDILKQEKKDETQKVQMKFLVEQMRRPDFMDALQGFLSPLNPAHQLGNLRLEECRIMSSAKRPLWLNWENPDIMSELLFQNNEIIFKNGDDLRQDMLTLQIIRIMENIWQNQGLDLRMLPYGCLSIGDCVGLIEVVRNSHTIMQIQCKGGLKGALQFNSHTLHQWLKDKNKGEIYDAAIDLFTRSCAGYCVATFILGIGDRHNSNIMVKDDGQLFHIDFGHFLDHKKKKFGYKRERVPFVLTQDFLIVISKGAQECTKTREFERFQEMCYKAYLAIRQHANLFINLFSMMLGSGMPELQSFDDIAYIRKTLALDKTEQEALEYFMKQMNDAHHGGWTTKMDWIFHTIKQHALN
T1 sequence (P27986 whole entry partner): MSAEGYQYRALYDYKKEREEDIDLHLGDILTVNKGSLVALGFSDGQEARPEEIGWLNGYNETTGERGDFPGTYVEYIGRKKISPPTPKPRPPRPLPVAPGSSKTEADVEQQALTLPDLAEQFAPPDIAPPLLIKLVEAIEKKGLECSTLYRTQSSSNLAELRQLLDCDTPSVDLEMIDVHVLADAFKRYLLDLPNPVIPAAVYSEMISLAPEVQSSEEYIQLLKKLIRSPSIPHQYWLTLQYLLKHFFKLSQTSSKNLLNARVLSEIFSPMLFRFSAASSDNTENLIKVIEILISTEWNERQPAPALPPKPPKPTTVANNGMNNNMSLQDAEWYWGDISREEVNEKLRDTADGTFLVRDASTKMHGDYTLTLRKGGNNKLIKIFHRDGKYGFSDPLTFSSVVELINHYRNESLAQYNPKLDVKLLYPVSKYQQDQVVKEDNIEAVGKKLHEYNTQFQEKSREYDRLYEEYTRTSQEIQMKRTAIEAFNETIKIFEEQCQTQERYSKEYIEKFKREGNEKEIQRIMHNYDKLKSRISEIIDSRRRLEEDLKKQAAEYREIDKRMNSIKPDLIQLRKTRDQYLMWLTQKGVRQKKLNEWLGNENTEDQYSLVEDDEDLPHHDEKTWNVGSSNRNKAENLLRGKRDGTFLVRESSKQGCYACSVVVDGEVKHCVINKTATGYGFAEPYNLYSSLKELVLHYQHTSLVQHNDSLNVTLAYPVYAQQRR

IC50 [2]	IC50 (Full-length mTOR kinase)	Structure (SMILES)	IC50 (sensitive lines) ([1]; six of eight human breast cancer cell lines)	IC50 ([1]; two resistant lines of eight human breast cancer cell lines)
–	–	CO[C@H]1C[C@@H]2CC[C@@H](C)[C@@](O)(O2)C(=O)C(=O)N2CCCC[C@H]2C(=O)O[C@H]([C@H](C)C[C@@H]2CC[C@@H](OC(=O)C(C)(CO)CO)[C@H](OC)C2)CC(=O)[C@H](C)/C=C(\C)[C@@H](O)[C@@H](OC)C(=O)[C@H](C)C[C@H](C)/C=C/C=C/C=C/1C [CCI-779]	low nanomolar range	> 1 µM
< 1 µM	< 1 µM	CCC(C)n1cnc2c(-c3cnc(N)cn3)nc(N3CCOCC3)nc21 (stereo not shown) [Compound 1, 5-(9-sec-Butyl-2-morpholin-4-yl-9H-purin-6-yl)-pyrazin-2-ylamine]	–	–
< 1 µM	< 1 µM	CC(C)C(C)n1cnc2c(-c3cnc(N)cn3)nc(N3CCOCC3)nc21 (stereo not shown) [Compound 2]	–	–
< 1 µM	< 1 µM	CCC(C#N)n1cnc2c(-c3cnc(N)cn3)nc(N3CCOCC3)nc21 (stereo not shown) [Compound 3]	–	–
< 1 µM	< 1 µM	CCC(CC)n1cnc2c(-c3cnc(N)cn3)nc(N3CCOCC3)nc21 [Compound 4]	–	–
< 1 µM	< 1 µM	Nc1cnc(-c2nc(N3CCOCC3)nc3c2ncn3C2CCCC2)cn1 [Compound 5]	–	–
< 1 µM	1 to 5 µM	Nc1cnc(-c2nc(N3CCOCC3)nc3c2ncn3Cc2ccccc2)cn1 [Compound 6]	–	–
< 1 µM	< 1 µM	Nc1cnc(-c2nc(N3CCOCC3)nc3c2ncn3Cc2c(F)cccc2F)cn1 [Compound 7, 5-[9-(2,6-Difluoro-benzyl)-2-morpholin-4-yl-9H-purin-6-yl]-pyrazin-2-ylamine]	–	–
< 1 µM	< 1 µM	Nc1cnc(-c2nc(N3CCOCC3)nc3c2ncn3CC2CC2)cn1 [Compound 8]	–	–
< 1 µM	< 1 µM	CC(C1CC1)n1cnc2c(-c3cnc(N)cn3)nc(N3CCOCC3)nc21 (stereo not shown) [Compound 9]	–	–
< 1 µM	< 1 µM	COCC(C)n1cnc2c(-c3cnc(N)cn3)nc(N3CCOCC3)nc21 (stereo not shown) [Compound 10]	–	–
< 1 µM	< 1 µM	Cc1cccc(-n2cnc3c(-c4cnc(N)cn4)nc(N4CCOCC4)nc32)c1 [Compound 11, 5-(2-Morpholin-4-yl-9-m-tolyl-9H-purin-6-yl)-pyrazin-2-ylamine]	–	–
< 1 µM	< 1 µM	Nc1cnc(-c2nc(N3CCOCC3)nc3c2ncn3C2CCOC2)cn1 (stereo not shown) [Compound 12]	–	–
< 1 µM	< 1 µM	Nc1cnc(-c2nc(N3CCOCC3)nc3c2ncn3C2CCc3ccccc3C2)cn1 (stereo not shown) [Compound 13]	–	–
< 1 µM	< 1 µM	CCC(C)n1c(Br)nc2c(-c3cnc(N)cn3)nc(N3CCOCC3)nc21 (stereo not shown) [Compound 15, 5-(8-Bromo-9-sec-butyl-2-morpholin-4-yl-9H-purin-6-yl)-pyrazin-2-ylamine]	–	–
< 1 µM	< 1 µM	Nc1cnc(-c2nc(N3CCOCC3)nc3c2ncn3C2CCN(c3ccccc3)CC2)cn1 [Compound 16]	–	–
< 1 µM	< 1 µM	Nc1cnc(-c2nc(N3CCOCC3)nc3[nH]cnc23)cn1 [Compound 17]	–	–
< 1 µM	< 1 µM	Nc1cnc(-c2nc(N3CCOCC3)nc3c2ncn3C2CCN(c3ccccc3)C2)cn1 (stereo not shown) [Compound 18]	–	–
< 1 µM	< 1 µM	Nc1cnc(-c2nc(N3CCOCC3)nc3c2ncn3-c2ccccc2)cn1 [Compound 19]	–	–
< 1 µM	< 1 µM	Nc1cnc(-c2nc(N3CCOCC3)nc3c2nc(Br)n3C2CCOC2)cn1 (stereo not shown) [Compound 20]	–	–
< 1 µM	< 1 µM	Nc1cnc(-c2nc(N3CCOCC3)nc3c2ncn3C2Cc3ccccc3C2)cn1 [Compound 21]	–	–
< 1 µM	< 1 µM	CC(C)(C)Cn1cnc2c(-c3cnc(N)cn3)nc(N3CCOCC3)nc21 [Compound 22]	–	–
< 1 µM	< 1 µM	Nc1cnc(-c2nc(N3CCOCC3)nc3c2ncn3C2CCc3ccccc32)cn1 (stereo not shown) [Compound 23]	–	–
< 1 µM	< 1 µM	Nc1cnc(-c2nc(N3CCOCC3)nc3c2ncn3C2CCC2)cn1 [Compound 24]	–	–
< 1 µM	< 1 µM	CC1CCCCC1n1cnc2c(-c3cnc(N)cn3)nc(N3CCOCC3)nc21 (stereo not shown) [Compound 25]	–	–

Structure (SMILES)	IC50 [2]	IC50 (Full-length mTOR kinase)	IC50 (sensitive lines) ([1]; six of eight human breast cancer cell lines)	IC50 ([1]; two resistant lines of eight human breast cancer cell lines)
Nc1cnc(-c2nc(N3CCOCC3)nc3c2ncn3-c2ccc3c(c2)OCO3)cn1 [Compound 14]	< 1 µM	< 1 µM	–	–
